Laboratory results taken from patent US9593305B2, “Differentiation of pluripotent stem cells” (Janssen Biotech, Inc., priority 2008, dated 2017).

Legend:
[1] = tested on: H1 human embryonic stem cells; assay: Definitive endoderm formation with TGF superfamily members, SOX17 and cell number (Example 14); type: cell-based; settings: growth factor with 20 ng/ml Wnt3a, three days
Description: Clusters were centrifuged at low speed to collect a cell pellet and remove residual dispase. […] All human embryonic stem cell lines were maintained at passage numbers less than 50 and routinely evaluated for normal karyotype and absence of mycoplasma.
Cells were washed again three times with PBS and blocked with 4% chicken serum (Invitrogen; Cat #16110082) in PBS for 30 minutes at room temperature. […] Plates were washed once with PBS and left in 100 μl/well PBS for imaging.

[2] = tested on: H1 human embryonic stem cells; assay: Screen of CDK, GSK3 and TRK inhibitors with or without GDF-8, SOX17 and cell number (Example 20, Table 17); type: cell-based; settings: for Cell Number, Average Total Cell Number / Sox17 Expression, Average Total Intensity / Cell Number, % of positive control / Sox17 Expression, % of positive control: Plate 1; for Cell Number, % of positive control / Sox17 Expression, % of positive control: positive control = Activin A/Wnt3a
Description: Briefly, clusters of H1 human embryonic stem cells were grown on reduced growth factor Matrigel™ (Invitrogen; Cat #356231) coated tissue culture plastic. Cells were passaged using collagenase (Invitrogen; Cat #17104-019) treatment and gentle scraping, washed to remove residual enzyme, and plated with even dispersal at a ratio of 1:1 (surface area) on reduced growth factor […]™ (BD Biosciences; Cat #356231)-coated 96-well black plates (Packard ViewPlates; PerkinElmer; Cat #6005182) using volumes of 100 μl/well. Cells were allowed to attach and then recover log phase growth over a 1 to 3 day time period, feeding daily with MEF conditioned medium supplemented with 8 ng/ml bFGF (R&D Systems; Cat #233-FB). Plates were maintained at 37° C., 5% CO2 in a humidified box throughout the duration of assay.
Screening was conducted using the compounds described in Table 16. […] Compounds were made available as 5 mM stocks in 96-well plate format, solubilized in 100% DMSO (Sigma; Cat #D2650) and stored at −80° C. The library compounds were further diluted to an intermediate concentration of 0.2 mM in 50 mM HEPES (Invitrogen; Cat #15630-080), 20% DMSO and stored at 4° C. Test conditions were performed in triplicate, feeding on alternating days over a four-day assay period. Assay was initiated by aspirating culture medium from each well followed by three washes in PBS (Invitrogen; Cat #14190) to remove residual growth factors. On the first day of assay, test volumes of 200 μl per well were added to each well using DMEM:F12 base medium (Invitrogen; Cat #11330-032) supplemented with 0.5% FCS (HyClone; Cat #SH30070.03) and 100 ng/ml GDF-8 (R&D Systems, Cat #788-G8) plus 2.5 μM compound. A parallel set of test samples were treated in an identical manner but omitting GDF-8 from the medium. On the third day of assay, test volumes of 100 μper well were added to each well using DMEM:F12 base medium supplemented with 2% FCS plus 100 ng/ml GDF-8 (R&D Systems, Cat #788-G8). […] Positive control samples contained the same base medium supplemented with FCS and 100 ng/ml recombinant human activin A (PeproTech; Cat #120-14) throughout the four day assay along with Wnt3a (20 ng/ml) addition on days 1 and 2. Negative control samples contained DMEM:F12 base medium supplemented with FCS.
At the conclusion of four-days of culture, assay plates were washed twice with PBS (Invitrogen; Cat #14190), fixed with 4% paraformaldehyde (Alexis Biochemical; Cat #ALX-350-011) at room temperature for 20 minutes, then washed three times with PBS and permeabilized with 0.5% Triton X-100 (Sigma; Cat #T8760-2) for 20 minutes at room temperature. Cells were washed again three times with PBS and blocked with 4% chicken serum (Invitrogen; Cat #16110082) in PBS for 30 minutes at room temperature. Primary antibody (goat anti-human SOX17; R&D Systems; Cat #AF1924) was diluted 1:100 in 4% chicken serum and added to each well for one hour at room temperature. Alexa Fluor 488 conjugated secondary antibody (chicken anti-goat IgG; Molecular Probes; Cat #AZ1467) was diluted 1:200 in PBS and added to each sample well after washing three times with PBS. To counterstain nuclei, 4 μg/ml Hoechst 33342 (Invitrogen; Cat #H3570) was added for ten minutes at room temperature. Plates were washed once with PBS and left in 100 μl/well PBS for imaging.
Imaging was performed using an IN Cell Analyzer 1000 (GE Healthcare) utilizing the 51008bs dichroic for cells stained with Hoechst 33342 and Alexa Fluor 488. Exposure times were optimized from positive control wells and from untreated negative control wells stained with secondary antibody alone. Images from 15 fields per well were acquired to compensate for any cell loss during the bioassay and subsequent staining procedures. Measurements for total cell number and total SOX17 intensity were obtained from each well using IN Cell Developer Toolbox 1.7 (GE Healthcare) software. […]

[3] = growth factor treatment alone, no compound
[4] = compound in combination with GDF8

Molecule | SOX17 expression in combination with Wnt3a [1] | Cell Number, Average Total Cell Number [2, 3] | Sox17 Expression, Average Total Intensity [2, 3] | Cell Number, % of positive control [2, 3] | Sox17 Expression, % of positive control [2, 3] | SOX17 expression in the presence of GDF-8 ([2]; 2.5 μM compound with 100 ng/ml GDF-8, four days) | Cell Number, Average Total Cell Number [2, 4] | Sox17 Expression, Average Total Intensity [2, 4] | Cell Number, % of positive control [2, 4] | Sox17 Expression, % of positive control [2, 4]
Activin A: recombinant human activin A (PeproTech), TGF-beta family member | robust expression of SOX17 |  |  |  |  |  |  |  |  | 
GDF-8: growth factor GDF-8, also known as myostatin, member of the TGF-β family | significant induction of SOX17 expression | 2856 | 2.2E+07 | 19.7 % of positive control | 9.4 % of positive control |  |  |  |  | 
O=C1CCN2CCN(CC2)Cc2cc(Cl)cc(c2)Nc2ncnc(n2)-c2cncc(c2)CCCN1 [Compound 34, 5-Chloro-1,8,10,12,16,22,26,32-octaazapentacyclo[24.2.2.1˜3.7˜0.1˜9,13˜0.1˜14.18˜]tritriaconta-3(33), 4,6,9(32), 10,12,14(31), 15,17-nonaen-23-one] |  |  |  |  |  | induced significant SOX17 expression | 13926 | 2.6E+08 | 96.2 % of positive control | 111.8 % of positive control
